Data published in patent publication US20080113929A1, “Abasic Oligonucleotide as Carrier Platform for Antigen and Immunostimulatory Agonist and Antagonist” (Coley Pharmaceutical GmbH, priority 2004, published 2008).

How the values were obtained:
murine TLR9 = biological target: T1, murine TLR9 (Mus musculus, UniProt Q9EQU3); test: TLR9 signaling induction, NFκB-luciferase reporter in HEK 293 cells stably transfected with murine TLR9; format: cell-based; settings: 16 h, HEK 293 murine TLR9 NFκB-luciferase
T1 construct: expressed in transfected cells; host or cells: HEK 293 cells, stably transfected, also carrying a six-fold NFκB-luciferase reporter plasmid
T1 sequence (Q9EQU3 26-1032): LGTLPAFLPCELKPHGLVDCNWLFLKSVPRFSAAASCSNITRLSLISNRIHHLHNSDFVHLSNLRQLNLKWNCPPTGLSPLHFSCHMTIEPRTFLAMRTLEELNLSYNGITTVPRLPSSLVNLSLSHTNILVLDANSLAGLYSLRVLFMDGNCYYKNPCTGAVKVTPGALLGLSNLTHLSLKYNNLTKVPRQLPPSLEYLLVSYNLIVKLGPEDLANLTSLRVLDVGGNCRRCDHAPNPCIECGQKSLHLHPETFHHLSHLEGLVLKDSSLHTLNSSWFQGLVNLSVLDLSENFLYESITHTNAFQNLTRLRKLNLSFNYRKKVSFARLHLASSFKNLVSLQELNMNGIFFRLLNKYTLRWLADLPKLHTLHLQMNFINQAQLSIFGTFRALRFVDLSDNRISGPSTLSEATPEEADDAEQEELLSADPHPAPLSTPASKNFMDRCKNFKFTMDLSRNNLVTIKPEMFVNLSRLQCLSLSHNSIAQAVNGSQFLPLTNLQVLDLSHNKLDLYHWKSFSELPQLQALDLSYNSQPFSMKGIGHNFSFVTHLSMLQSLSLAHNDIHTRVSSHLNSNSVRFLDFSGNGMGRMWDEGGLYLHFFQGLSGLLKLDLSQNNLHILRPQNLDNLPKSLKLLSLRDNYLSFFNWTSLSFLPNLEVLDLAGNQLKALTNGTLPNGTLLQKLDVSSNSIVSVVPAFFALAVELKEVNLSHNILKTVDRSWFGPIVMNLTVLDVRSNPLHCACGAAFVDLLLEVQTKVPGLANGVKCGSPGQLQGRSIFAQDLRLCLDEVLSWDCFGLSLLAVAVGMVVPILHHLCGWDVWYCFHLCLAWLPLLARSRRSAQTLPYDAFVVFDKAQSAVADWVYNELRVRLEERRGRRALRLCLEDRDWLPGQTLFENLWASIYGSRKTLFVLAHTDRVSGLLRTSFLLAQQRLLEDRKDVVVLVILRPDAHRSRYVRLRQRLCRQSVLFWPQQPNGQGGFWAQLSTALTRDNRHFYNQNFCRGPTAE
Procedure: FIG. 2 is a graph depicting fold induction of TLR9 signaling in vitro, as measured using 293 cells stably transformed with murine TLR9 and a NF-κB-luciferase reporter construct, following 16 hour incubation with indicated concentrations of hexamer CpG motif GACGTT alone (20321), CpG motif GACGTT in the context of a 20-mer CpG-ODN(ODN 5890; SEQ ID NO:5), or CpG motif GACGTT in the context of flanking abasic sequences in 20-mer 20307 (poly-D) or in 20-mer 20566 (poly-C3 spacer). EC50 values are shown in the graph legend.
Following published methods, HEK 293 cells were stably transfected with a murine TLR9 expression vector and a six-fold NFκB-luciferase reporter plasmid. Cells were plated on 96-well plates at 1.5×10^4 cells/well and allowed to attach overnight. The cells were then treated for sixteen hours with individual test compounds listed below at concentrations ranging between 10^−9 M and 10^−5 M.
Test agents were as follows: ODN 20321 (GACGTT); ODN 5890 (SEQ ID NO:5); 20307 ([…], where each D represents an abasic deoxyribonucleotide unit); and 20566 (JJJJJGACGTTJJJJJJJJJ, where each J represents a C3 spacer derived from propane-1,3-diol).
Each data point was done in duplicate. After 16 h stimulation the supernatant was removed and the cells were treated with lysis buffer and stored at −80° C. until luciferase measurement. Values are given as fold NFκB activation compared with non-stimulated cells.

[1] = system: RAW 264.7 murine macrophage cell line; test: In vitro uptake of Cy3-labeled oligomers by RAW 264.7 cells (FACS mean fluorescence); format: cell-based; settings: Cy3-labeled 20-mer, 0.5 to 5.0 μM, 1 hr at 37° C.
Procedure: FIG. 1 is a bar graph depicting uptake by RAW 264.7 cells of Cy3-labeled 20-mer abasic oligonucleotides (poly-D or poly-C3) and of 20-mer ODN 5890 (SEQ ID NO:5). No data is shown for poly-C3 at 4.0 or 5.0 μM.
The 20-mer ODN 5890 ([…]; SEQ ID NO:5), a 20-mer poly-abasic (i.e., poly-D) or a 20-mer poly-C3 were synthesized with a fluorescence tag Cy3. The murine macrophage cell line, RAW 264.7 (American Type Culture Collection, Manassas, Va.), was incubated with various concentrations of test oligomer (0.5 to 5.0 μM) for 1 hr at 37° C. The cells were then washed and FACS analyzed for oligomer uptake by monitoring mean fluorescence. […] No data is shown for poly-C3 at concentrations of 4.0 or 5.0 μM.

With DDDDDGACGTTDDDDDDDDD [compound 20307] the “TLR9 signaling compared with hexamer CpG motif alone (20321), in words” value (murine TLR9) was “induced significantly more TLR9 signaling”.

JJJJJGACGTTJJJJJJJJJ [compound 20566] was tested, and the “TLR9 signaling compared with hexamer CpG motif alone (20321), in words” value (murine TLR9) was “induced significantly more TLR9 signaling”.

“TCCATGACGTTTTTGATGTT (Cy3 fluorescent tag attached, position not given here) [ODN 5890, Cy3-tagged in the uptake test]” was tested, and the “oligomer uptake (comparison in words)” value [1] was “up taken to a greater extent than either abasic oligonucleotide” and the “TLR9 signaling compared with hexamer CpG motif alone (20321), in words” value (murine TLR9) was “induced significantly more TLR9 signaling”.
